Among the test systems are HT29 colon; KM12 colon; HOP-92 NSCLC; U251 CNS; OVCAR-5 ovarian; MOLT-4 leukemia; A549 NSCLC; NCI/ADR-RES ovarian; COLO 205 colon; UACC-257 melanoma.
Test in all cases: NCI tumour cell line growth inhibition, 48 h

“And” between values parts separate entries of the source, which are not always exact repeats. Equal entries are not always repeated.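 Briefly, cells in 96-well plates were exposed to five compound concentrations for 48 h, and endpoints were estimated by linear interpolation. GI50 is the concentration that inhibits growth by half. TGI: concentration producing complete growth inhibition.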

For the compound `NC(N)=NC(N)=Nc1cc2ccccc2c2ccccc12`, the GI50 in the assay with HT29 colon was 7.83 µM; with KM12 colon, 12.3 µM; in the assay with HOP-92 NSCLC, 1.31 µM; in the assay on U251 CNS, 4.83 µM; in the assay on OVCAR-5 ovarian, 11 µM; in the assay on MOLT-4 leukemia, 2.91 µM. The GI50 with A549 NSCLC is 4.58 µM; in the assay on NCI/ADR-RES ovarian it was 17 µM; in the assay on COLO 205 colon it was 1.84 µM; in the assay on UACC-257 melanoma it was 10.5 µM. Also, the TGI in the assay with HT29 colon came to 23.6 µM; with KM12 colon, 27.2 µM; with HOP-92 NSCLC it was 11 µM; with U251 CNS, 18.1 µM; with OVCAR-5 ovarian, 24.3 µM; in the assay with MOLT-4 leukemia, 13.7 µM. Moreover, the TGI was 18.1 µM with A549 NSCLC, 43.2 µM in the assay on NCI/ADR-RES ovarian, 4.49 µM with COLO 205 colon and 22.9 µM in the assay with UACC-257 melanoma.
As to `CCCCNC(=O)NS(=O)(=O)c1ccc(N2N=C(c3ccc(C)cc3C)CC2c2ccc(N(C)C)cc2)cc1` (centres undefined), the GI50 in the assay with HT29 colon was 4.2 µM; with KM12 colon it was 3.72 µM; in the assay on HOP-92 NSCLC, 2.39 µM; in the assay with U251 CNS it was 3.59 µM; in the assay with OVCAR-5 ovarian, 5.24 µM; in the assay with MOLT-4 leukemia, 3.61 µM. Moreover, the GI50 in the assay on A549 NSCLC was 3.2 µM; in the assay with NCI/ADR-RES ovarian it was 4.12 µM; with COLO 205 colon, 3.19 µM; in the assay on UACC-257 melanoma, 4.04 µM. Moreover, the TGI in the assay on HT29 colon was 19.9 µM; in the assay with KM12 colon it was greater than 100 µM; with HOP-92 NSCLC it was 31.4 µM; in the assay on U251 CNS it was 27.6 µM; in the assay on OVCAR-5 ovarian it was 96.1 µM; in the assay with MOLT-4 leukemia, greater than 100 µM. Moreover, the TGI in the assay on A549 NSCLC was greater than 100 µM; in the assay with NCI/ADR-RES ovarian, greater than 100 µM; with COLO 205 colon it was 7.56 µM; in the assay with UACC-257 melanoma it was greater than 100 µM.
Turning to `Cc1cc(C2CCCCC2)n(O)c(=O)c1`, the GI50 was 5.27 µM in the assay with HT29 colon; 2.53 µM in the assay on KM12 colon; 1.13 µM with U251 CNS; 6.13 µM in the assay with OVCAR-5 ovarian; 1.34 µM in the assay on A549 NSCLC; 1.22 µM in the assay with NCI/ADR-RES ovarian. Moreover, the GI50 in the assay on COLO 205 colon was 4.46 µM; in the assay on UACC-257 melanoma, 2.6 µM. For the same compound, the TGI with HT29 colon is greater than 100 µM; with KM12 colon, greater than 100 µM; in the assay on HOP-92 NSCLC, 21.5 µM; in the assay on OVCAR-5 ovarian it was greater than 100 µM; in the assay on MOLT-4 leukemia, greater than 100 µM; in the assay with A549 NSCLC it was greater than 100 µM. Also, the TGI was 14.9 µM in the assay on NCI/ADR-RES ovarian; greater than 100 µM in the assay with COLO 205 colon; 21.9 µM and 8.45 µM in the assay on UACC-257 melanoma.
For the compound `COc1ccc(/C(=N/Nc2ccc([N+](=O)[O-])cc2)Sc2cc(Cl)c(C)cc2S(N)(=O)=O)cc1`, the GI50 in the assay on HT29 colon is 2.91 µM; with KM12 colon it was 3.22 µM; with HOP-92 NSCLC it was 2.47 µM; with U251 CNS, 7.13 µM; in the assay with OVCAR-5 ovarian, 7.59 µM; in the assay on MOLT-4 leukemia it was 5.02 µM. In addition, the GI50 was 5.25 µM in the assay with A549 NSCLC, 5.42 µM in the assay on NCI/ADR-RES ovarian, 8.57 µM with COLO 205 colon and 13 µM in the assay with UACC-257 melanoma. Besides, the TGI in the assay on HT29 colon stood at 6.89 µM; with KM12 colon it was 9.96 µM; with HOP-92 NSCLC, 8.01 µM; in the assay with U251 CNS, 24.3 µM; in the assay with OVCAR-5 ovarian, 19.2 µM; in the assay with MOLT-4 leukemia it was 16.5 µM. For the same compound, the TGI was determined as 18.1 µM with A549 NSCLC, 14.1 µM in the assay on NCI/ADR-RES ovarian, 33.3 µM in the assay on COLO 205 colon and 26.4 µM with UACC-257 melanoma.
As to `COc1cc2c3c(n(CCCCl)c(=O)c2cc1OC)-c1ccccc1C3=O`, the GI50 in the assay on KM12 colon is greater than 100 µM; with HOP-92 NSCLC, 78.8 µM; in the assay on U251 CNS, 11.9 µM; in the assay on MOLT-4 leukemia it was 2.18 µM; in the assay on A549 NSCLC it was greater than 100 µM; with NCI/ADR-RES ovarian, 6.36 µM. Moreover, the GI50 in the assay with UACC-257 melanoma is 10.2 µM. Besides, the TGI in the assay with KM12 colon was greater than 100 µM; in the assay with HOP-92 NSCLC, greater than 100 µM; in the assay with U251 CNS, greater than 100 µM; in the assay with MOLT-4 leukemia, 96.6 µM; in the assay on A549 NSCLC it was greater than 100 µM; in the assay on NCI/ADR-RES ovarian it was greater than 100 µM. Besides, the TGI with UACC-257 melanoma was greater than 100 µM.
As to `COc1cc2c3c(n(CCCBr)c(=O)c2cc1OC)-c1ccc(NC(C)=O)cc1C3=O`, the GI50 with HT29 colon was 2.99 µM; in the assay on KM12 colon, 7.35 µM; in the assay with HOP-92 NSCLC, 73.4 µM; with U251 CNS, 1.17 µM; in the assay on OVCAR-5 ovarian it was 52.6 µM; in the assay with A549 NSCLC it was 25.4 µM. For the same compound, the GI50 in the assay on NCI/ADR-RES ovarian was 39.4 µM; with COLO 205 colon it was 14.1 µM; with UACC-257 melanoma, 28.1 µM. The TGI in the assay with HT29 colon was greater than 100 µM; in the assay on KM12 colon it was greater than 100 µM; in the assay with HOP-92 NSCLC it was greater than 100 µM; in the assay with U251 CNS, 44.1 µM; with OVCAR-5 ovarian it was greater than 100 µM; with A549 NSCLC, greater than 100 µM. For the same compound, the TGI in the assay with NCI/ADR-RES ovarian, with COLO 205 colon and in the assay with UACC-257 melanoma was greater than 100 µM throughout.
Consider `CCCNC(=S)N/N=C(\C)c1ccccn1`, for which the GI50 in the assay with HT29 colon is less than 0.0127 µM; in the assay with KM12 colon it was 0.426 µM; in the assay with HOP-92 NSCLC, 0.115 µM; with U251 CNS, 0.0497 µM; in the assay with OVCAR-5 ovarian, 0.529 µM; with MOLT-4 leukemia it was 0.0524 µM. For the same compound, the GI50 was 0.447 µM with A549 NSCLC, 0.0365 µM with NCI/ADR-RES ovarian, 0.04 µM with COLO 205 colon and 0.038 µM in the assay on UACC-257 melanoma. Besides, the TGI was greater than 100 µM with HT29 colon; greater than 100 µM with KM12 colon; greater than 100 µM with HOP-92 NSCLC; greater than 100 µM in the assay on U251 CNS; greater than 100 µM in the assay with OVCAR-5 ovarian; 0.816 µM with MOLT-4 leukemia. For the same compound, the TGI with A549 NSCLC was greater than 100 µM; in the assay with NCI/ADR-RES ovarian, greater than 100 µM; in the assay with COLO 205 colon, greater than 100 µM; with UACC-257 melanoma it was 1.38 µM.
In the case of `COc1ccc(S(=O)(=O)N(Cc2ccc3c(n2)C=CC(C)(C)O3)C2CCC2)cc1OC`, the GI50 in the assay on HT29 colon was 0.021 µM; in the assay on KM12 colon it was less than 0.01 µM; with HOP-92 NSCLC, less than 0.01 µM; with U251 CNS it was less than 0.01 µM; in the assay on OVCAR-5 ovarian it was less than 0.01 µM; with MOLT-4 leukemia it was less than 0.01 µM. Also, the GI50 with A549 NSCLC was 0.0233 µM; in the assay with NCI/ADR-RES ovarian, 0.13 µM; in the assay with COLO 205 colon, less than 0.01 µM; in the assay on UACC-257 melanoma it was less than 0.0105 µM. Besides, the TGI with HT29 colon was greater than 36.6 µM; with KM12 colon, greater than 37.7 µM; in the assay on HOP-92 NSCLC, less than 0.01 µM; in the assay on U251 CNS, 0.883 µM; with OVCAR-5 ovarian, 7.25 µM; in the assay with MOLT-4 leukemia, 0.0355 µM. For the same compound, the TGI was 1.66 µM with A549 NSCLC, greater than 100 µM in the assay on NCI/ADR-RES ovarian, 0.0537 µM with COLO 205 colon and 0.239 µM with UACC-257 melanoma.
